These results are taken from ChEMBL document CHEMBL4725372, “Rational Design of Suprastat: A Novel Selective Histone Deacetylase 6 Inhibitor with the Ability to Potentiate Immunotherapy in Melanoma Models” (J Med Chem, 2020).

Assay [1] addresses Histone deacetylase (Homo sapiens) (UniProt Q13547+O15379+Q9UBN7+Q92769+Q9UQL6+Q8WUI4+Q9BY41+Q96DB2+P56524+Q9UKV0+Q969S8). The experiment in a line: Inhibition of human HDAC in human WM164 cells increase in acetylated histone H3 levels at 0.1 to 10 uM by immunoblot analysis. As to conditions: dose microM 0.1-10. It is filed as cell-based.
Assay [2] has as its system Mus musculus. The experiment in a line: Immunomodulatory activity in C57BL/6 mouse harboring mouse SM1 cells assessed as effect on number of F4/80+ CD80+ H2+ antitumor M1 macrophages at 25 mg/kg, ip dosed 5 days per week before starting 15 mg/kg, ip anti-PD1 immune checkpoint blockade therapy by flow cytometry. In kind it is functional, organism-based. Conditions: time 5.0 day/week.

SMILES strings stand for the structures. Calls of active or inactive are those of the source. The rule behind the calls is not given here.

Regarding `NCc1ccc(NC(=O)N(CCCCO)Cc2ccc(C(=O)NO)cc2)cc1`, the inhibition result in assay [1] is “Active”. Further, the result in assay [2] was inactive.
